# Patent publication US11590129B2, “Combination therapy with an antitumor alkaloid” (PHARMA MAR, S.A., priority 2010, dated 2023)
# Read-outs that look alike come from different tables or passages of the source.
# Tests used:
# [1] = test system: RXF-393 human kidney carcinoma cell line; assay: cells
# Experimental: (§1) a. […] Briefly, cells were harvested and seeded in 96 well microtiter plates at a density of 5,000 cells in 150 μL of culture medium and incubated for 24 hours in drug-free medium before treatment with vehicle alone or test compounds for 72 h.
# (§2) The cytotoxic effect was measured by the MTT reduction assay, in which 3-(4,5-Dimethylthiazol-2-yl)-2,5-diphenyltetrazolium bromide, a tetrazole, which is reduced to purple formazan in the mitochondria of living cells, was used. MTT (50 μL of 1 mg/mL stock solution) was added to the wells and incubated for 8 hours at 37° C. until formazan crystals were formed. After gently removing the culture medium, DMSO was added to dissolve the insoluble purple formazan product into a colored solution. […] Results were expressed as percentage of control cell growth.
# (§3) b. In a second set of assays, A549 human tumor cells were incubated with PM01183 in combination with each of the agents mentioned above.
# (§4) As a visual aid, response values were plotted on a scatter plot with dose ratios given on the x-axis and % response values on the y-axis. […] In cases where response values at the two endpoints were approximately equivalent, points lying above or below this predicted line of additivity could be interpreted as representing antagonistic or synergistic drug interaction, respectively.
# (§5) Additional serial dilutions were prepared in serum-free culture medium to achieve a final 4× concentration. Aliquots of 50 μL of each diluted compound were added per well.
# [2] = test system: MDA-MB-231 human breast adenocarcinoma cell line; assay: cells
# Experimental: as §1, §2, §3, §4, §5
# [3] = test system: HT-29 human colon adenocarcinoma cell line; assay: cells
# Experimental: as §1, §2, §3, §4, §5
# HT-29 was the human colon adenocarcinoma cell line selected for this assay.
# [4] = test system: A549 human lung carcinoma cell line; assay: MTT cytotoxicity assay in A549 cells: IC50 of single agents and combinations with PM01183; format: cell-based; conditions: Homo sapiens, A549, 72 h
# Experimental: as §5
# A549 was the human lung carcinoma cell line selected for this assay.
# as §1, §2, §3, §4
# [5] = test system: IGROV-1 human ovarian adenocarcinoma cell line; assay: cells
# Experimental: as §1, §2, §3, §4, §5
# IGROV-1 was the human ovarian adenocarcinoma cell line selected for this assay.
# [6] = test system: HGC-27 tumors; assay: Human gastric tumor xenografts (HGC-27) in athymic nude mice, tumor volume % T/C; format: in vivo
# Experimental: (§6) Female athymic nude mice (Harlan Laboratories Models, S.L. (Barcelona, Spain) were utilized for all experiments. Animals were housed in individually ventilated cages, up to ten per cage in a 12-hour light-dark cycle at 21-23° C. and 40-60% humidity. The mice were allowed free access to irradiated standard rodent diet and sterilized water. Animals were acclimated for at least 5 days prior to tumor implantation with a tumor cell suspension.
# HGC-27 cells were grown at 37° C. with 5% CO2 in Iscove's modified Dulbeco's medium (IDMD).
# (§7) PM01183 was provided in the form of vials of lyophilized PM01183 cake which was reconstituted with water for infusion to a concentration of 0.2 mg/mL. The PM01183 stock solution was further diluted in 5% glucose solution for injection to the dosing formulation concentrations. Cisplatin and 5-fluorouracil were provided as solutions prepared by diluting the product with 0.9% saline solution for injection to the target final concentration.
# (§8) Dose level groups were administered either as single agents or in combination.
# (§9) Comparison of the median tumor volume in the treatment groups (T) to the median tumor volume in the control group (T/C×100%) was used for evaluation of the antitumor efficacy.
# [7] = test system: PC-3 human prostate cancer cell line; assay: cells
# Experimental: as §1, §2, §3, §4, §5
# PC-3 was the human prostate adenocarcinome cell line selected for this assay.
# [8] = test system: HepG2 human hepatocellular liver carcinoma cell line; assay: MTT cytotoxicity assay in HepG2 cells: IC50 of single agents and combinations with PM01183; format: cell-based
# Experimental: as §1, §2, §3, §4, §5
# HepG2 was the human hepatocellular liver carcinoma cell line selected for this assay.
# [9] = test system: HGC-27 human gastric carcinoma cell line; assay: cells
# Experimental: as §1, §2, §3, §4, §5
# HGC-27 was the human gastric carcinoma cell line selected for this assay.
# [10] = test system: SK-MEL-2 human melanoma cell line; assay: cells
# Experimental: as §1, §2, §3, §4, §5
# SK-MEL-2 was the human melanoma cell line selected for this assay.
# [11] = test system: U87-MG human glioblastoma cell line; assay: cells
# Experimental: as §1, §2, §3, §4, §5
# U87-MG was the human glioblastoma cell line selected for this assay.
# [12] = test system: PANC-1 human pancreatic carcinoma cell line; assay: cells
# Experimental: as §1, §2, §3, §4, §5
# PANC-1 was the human pancreatic carcinoma cell line selected for this assay.
# [13] = test system: A2780 tumors; assay: Human ovarian tumor xenografts (A2780) in athymic nude mice, tumor volume % T/C; format: in vivo
# Experimental: as §6
# The formula to calculate volume for a prolate ellipsoid was used to estimate tumor volume (mm^3) from 2-dimensional tumor measurements: Tumor volume (mm^3)=[L×W^2]÷2, where L is the length and it is the longest diameter in mm, and W is the width and it is the shortest diameter in mm of a tumor. Assuming unit density, volume was converted to weight (i.e., 1 mm^3=1 mg). Tumor volume and animal body weights were measured 2-3 times per week starting form the first day of treatment (Day 0).
# as §7, with “[…] Vinorelbine was” for “Cisplatin and 5-fluorouracil were”, “a solution” for “solutions”, “solution.” for “solution for injection to the target final concentration.”
# as §8, §9
# Day 9 for PM01183 and vinorelbine study) using the median-effect principle (Chou T. C. Pharmacol. Rev.
# [14] = 5-fluorouracil 12.5 mg/kg iv days 0,7
# [15] = 5-fluorouracil 37.5 mg/kg iv days 0,7
# [16] = 5-fluorouracil 50.0 mg/kg iv days 0,7
# [17] = cisplatin 1.5 mg/kg iv days 0,7
# [18] = cisplatin 3.0 mg/kg iv days 0,7
# [19] = cisplatin 4.5 mg/kg iv days 0,7
# [20] = cisplatin 6.0 mg/kg iv days 0,7
# [21] = doxorubicin 2.0 mg/kg iv days 0,7
# [22] = doxorubicin 4.0 mg/kg iv days 0,7
# [23] = doxorubicin 6.0 mg/kg iv days 0,7
# [24] = doxorubicin 8.0 mg/kg iv days 0,7
smiles,measurement,setting,value
"O=c1[nH]cc(F)c(=O)[nH]1 [5-FU, 5-fluorouracil]",IC50,"[1]; Homo sapiens, RXF 393, 72 h",300 µM
same,IC50,"[2]; Homo sapiens, MDA-MB-231, 72 h",90 µM
same,IC50,"[3]; Homo sapiens, HT-29, 72 h",9 µM
same,IC50,[4],92.3 µM
same,IC50,"[5]; Homo sapiens, IGROV-1, 72 h",90 µM
same,% T/C on day 0,[6]; [14],100.7%
same,% T/C on day 2,[6]; [14],81.7%
same,% T/C on day 5,[6]; [14],101.3%
same,% T/C on day 7,[6]; [14],102.8%
same,% T/C on day 9,[6]; [14],98.6%
same,% T/C on day 12,[6]; [14],90.5%
same,% T/C on day 14,[6]; [14],83.8%
same,% T/C on day 0,[6]; [15],99.4%
same,% T/C on day 2,[6]; [15],86.9%
same,% T/C on day 5,[6]; [15],86.9%
same,% T/C on day 7,[6]; [15],78.6%
same,% T/C on day 9,[6]; [15],73.2%
same,% T/C on day 12,[6]; [15],76.7%
same,% T/C on day 14,[6]; [15],83.1%
same,% T/C on day 0,[6]; [16],100.3%
same,% T/C on day 2,[6]; [16],81.2%
same,% T/C on day 5,[6]; [16],82.3%
same,% T/C on day 7,[6]; [16],81.1%
same,% T/C on day 9,[6]; [16],75.6%
same,% T/C on day 12,[6]; [16],69.6%
same,% T/C on day 14,[6]; [16],60.7%
same,IC50,"[7]; Homo sapiens, PC-3, 72 h",1000 µM
same,IC50,"[8]; Homo sapiens, HepG2, 72 h",4.5 µM
same,IC50,"[9]; Homo sapiens, HGC-27, 72 h",10 µM
same,IC50,"[10]; Homo sapiens, SK-MEL-2, 72 h",700 µM
same,IC50,"[11]; Homo sapiens, U-87 MG, 72 h",1000 µM
"N.N.[Cl][Pt][Cl] [Cisplatin, cisplatin]",IC50,"[1]; RXF-393, 72 hours drug exposure, MTT",66.7 µM
same,IC50,"[2]; MDA-MB-231, 72 hours drug exposure, MTT",153 µM
same,IC50,"[3]; HT-29, 72 hours drug exposure, MTT",220 µM
same,IC50,"[5]; IGROV-1, 72 hours drug exposure, MTT",70 µM
same,% T/C on day 0,[6]; [17],99.3%
same,% T/C on day 3,[6]; [17],78.1%
same,% T/C on day 5,[6]; [17],78.8%
same,% T/C on day 7,[6]; [17],82.6%
same,% T/C on day 10,[6]; [17],83.5%
same,% T/C on day 12,[6]; [17],86.6%
same,% T/C on day 14,[6]; [17],89.9%
same,% T/C on day 0,[6]; [18],99.0%
same,% T/C on day 3,[6]; [18],78.6%
same,% T/C on day 5,[6]; [18],80.0%
same,% T/C on day 7,[6]; [18],78.7%
same,% T/C on day 10,[6]; [18],81.3%
same,% T/C on day 12,[6]; [18],82.8%
same,% T/C on day 14,[6]; [18],85.1%
same,% T/C on day 0,[6]; [19],98.5%
same,% T/C on day 3,[6]; [19],90.5%
same,% T/C on day 5,[6]; [19],94.5%
same,% T/C on day 7,[6]; [19],90.2%
same,% T/C on day 10,[6]; [19],75.7%
same,% T/C on day 12,[6]; [19],73.7%
same,% T/C on day 14,[6]; [19],81.1%
same,% T/C on day 0,[6]; [20],97.7%
same,% T/C on day 3,[6]; [20],76.1%
same,% T/C on day 5,[6]; [20],79.0%
same,% T/C on day 7,[6]; [20],75.1%
same,% T/C on day 10,[6]; [20],64.4%
same,% T/C on day 12,[6]; [20],61.3%
same,% T/C on day 14,[6]; [20],72.7%
same,IC50,"[7]; PC-3, 72 hours drug exposure, MTT",110 µM
same,IC50,"[8]; HepG2, 72 hours drug exposure, MTT, read-out: IC50",50 µM
same,IC50,"[9]; HGC-27, 72 hours drug exposure, MTT",80 µM
same,IC50,"[10]; SK-MEL-2, 72 hours drug exposure, MTT",160 µM
same,IC50,"[11]; U87-MG, 72 hours drug exposure, MTT",44 µM
same,IC50,"[12]; PANC-1, 72 hours drug exposure, MTT",147 µM
"COc1cccc2c1C(=O)c1c(O)c3c(c(O)c1C2=O)C[C@@](O)(C(=O)CO)C[C@@H]3O[C@H]1C[C@H](N)[C@H](O)[C@H](C)O1 [Doxorubicin, doxorubicin]",IC50,"[1]; Homo sapiens, RXF 393, 72 h",0.8 µM
same,IC50,"[2]; Homo sapiens, MDA-MB-231, 72 h",0.6 µM
same,IC50,"[3]; Homo sapiens, HT-29, 72 h",0.9 µM
same,IC50,"[5]; Homo sapiens, IGROV-1, 72 h",0.259 µM
same,IC50,"[7]; Homo sapiens, PC-3, 72 h",1.48 µM
same,IC50,"[8]; Homo sapiens, HepG2, 72 h",0.2 µM
same,IC50,"[9]; Homo sapiens, HGC-27, 72 h",0.054 µM
same,IC50,"[10]; Homo sapiens, SK-MEL-2, 72 h",0.3 µM
same,% T/C on day 0,[13]; [21],99.8%
same,% T/C on day 3,[13]; [21],91.5%
same,% T/C on day 5,[13]; [21],93.1%
same,% T/C on day 7,[13]; [21],94.2%
same,% T/C on day 10,[13]; [21],86.2%
same,% T/C on day 0,[13]; [22],102.0%
same,% T/C on day 3,[13]; [22],82.9%
same,% T/C on day 5,[13]; [22],75.1%
same,% T/C on day 7,[13]; [22],75.0%
same,% T/C on day 0,[13]; [23],99.4%
same,% T/C on day 3,[13]; [23],71.0%
same,% T/C on day 5,[13]; [23],60.3%
same,% T/C on day 7,[13]; [23],56.8%
same,% T/C on day 10,[13]; [23],54.3%
same,% T/C on day 0,[13]; [24],99.5%
same,% T/C on day 3,[13]; [24],60.8%
same,% T/C on day 5,[13]; [24],49.8%
same,% T/C on day 7,[13]; [24],48.1%
same,% T/C on day 10,[13]; [24],39.4%
same,IC50,"[11]; Homo sapiens, U-87 MG, 72 h",0.3 µM
same,IC50,"[12]; Homo sapiens, PANC-1, 72 h",3.45 µM
